In the assay the target is hTRPM3 (transient receptor potential melastatin 3) (Homo sapiens, UniProt Q9HCF6). The class given is cell-based.

Structures are written as SMILES.

hTRPM3 (transient receptor potential melastatin 3), sequence (Q9HCF6 whole entry): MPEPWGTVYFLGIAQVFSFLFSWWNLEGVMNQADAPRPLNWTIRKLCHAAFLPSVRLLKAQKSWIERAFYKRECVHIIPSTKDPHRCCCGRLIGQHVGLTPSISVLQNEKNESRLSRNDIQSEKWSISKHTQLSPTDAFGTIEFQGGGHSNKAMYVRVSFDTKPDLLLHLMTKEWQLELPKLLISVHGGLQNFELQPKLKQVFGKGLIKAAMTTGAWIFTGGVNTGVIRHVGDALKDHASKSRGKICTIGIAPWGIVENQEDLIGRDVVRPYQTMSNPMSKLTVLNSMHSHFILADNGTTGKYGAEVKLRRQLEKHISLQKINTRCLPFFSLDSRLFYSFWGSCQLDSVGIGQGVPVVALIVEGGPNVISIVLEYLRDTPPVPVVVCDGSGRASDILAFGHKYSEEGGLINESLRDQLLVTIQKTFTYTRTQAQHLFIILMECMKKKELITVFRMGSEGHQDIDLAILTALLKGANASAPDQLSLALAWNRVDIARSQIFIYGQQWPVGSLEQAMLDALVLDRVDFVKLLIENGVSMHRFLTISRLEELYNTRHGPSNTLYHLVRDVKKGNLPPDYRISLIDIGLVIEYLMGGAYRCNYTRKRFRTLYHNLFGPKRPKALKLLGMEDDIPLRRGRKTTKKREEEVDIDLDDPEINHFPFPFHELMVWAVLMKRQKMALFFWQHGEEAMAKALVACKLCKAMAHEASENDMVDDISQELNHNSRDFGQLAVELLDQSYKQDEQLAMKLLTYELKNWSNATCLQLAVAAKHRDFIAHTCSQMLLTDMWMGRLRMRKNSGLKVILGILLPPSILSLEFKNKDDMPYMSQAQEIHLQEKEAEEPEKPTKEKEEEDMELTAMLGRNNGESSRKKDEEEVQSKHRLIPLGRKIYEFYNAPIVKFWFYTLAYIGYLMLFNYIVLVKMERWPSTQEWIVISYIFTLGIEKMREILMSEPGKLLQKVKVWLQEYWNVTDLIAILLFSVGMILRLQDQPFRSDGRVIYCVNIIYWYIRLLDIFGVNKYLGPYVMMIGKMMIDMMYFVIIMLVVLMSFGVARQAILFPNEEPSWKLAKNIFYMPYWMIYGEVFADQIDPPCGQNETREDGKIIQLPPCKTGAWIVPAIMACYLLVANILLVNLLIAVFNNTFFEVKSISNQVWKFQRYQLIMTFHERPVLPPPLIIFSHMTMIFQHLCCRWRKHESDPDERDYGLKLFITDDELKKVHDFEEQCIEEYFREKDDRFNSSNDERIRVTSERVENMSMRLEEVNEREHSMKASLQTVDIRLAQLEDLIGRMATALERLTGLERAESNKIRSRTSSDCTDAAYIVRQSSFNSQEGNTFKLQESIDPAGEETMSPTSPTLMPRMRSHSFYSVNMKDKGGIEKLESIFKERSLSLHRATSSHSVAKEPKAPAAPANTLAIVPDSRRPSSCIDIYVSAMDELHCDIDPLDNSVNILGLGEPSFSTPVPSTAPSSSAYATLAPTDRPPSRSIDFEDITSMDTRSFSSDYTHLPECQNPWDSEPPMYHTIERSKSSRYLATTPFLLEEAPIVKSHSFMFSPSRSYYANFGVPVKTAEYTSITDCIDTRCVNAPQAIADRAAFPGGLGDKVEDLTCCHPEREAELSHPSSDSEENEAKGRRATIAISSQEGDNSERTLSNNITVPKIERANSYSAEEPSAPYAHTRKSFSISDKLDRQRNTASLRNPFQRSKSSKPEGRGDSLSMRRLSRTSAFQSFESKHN

For `CCCCCCCC(=O)OC[C@H](COP(=O)(O)O[C@@H]1[C@H](O)[C@H](O)[C@@H](OP(=O)(O)O)[C@H](OP(=O)(O)O)[C@H]1O)OC(=O)CCCCCCC` [diC8 PI(4,5)P2], the concentration giving a half-maximal response (EC50) worked out at 18 µM.
